From patent publication US20250135012A1, “DENDRIMER CONJUGATES OF SMALL MOLECULE BIOLOGICS FOR INTRACELLULAR DELIVERY” (The Johns Hopkins University, priority 2021, published 2025)

Legend:
TNFα [1] = experiment: TNFα mRNA in LPS stimulated BV2 cells (PCR); assay type: cell-based, murine; conditions: BV2, LPS 100 ng/mL, 24 h, 1-100 nM
Description: (§1) HMEC and BV2 samples were then collected with TRIzol for polymerase chain reaction (PCR) analysis. In brief, samples were subjected to a freeze-thaw cycle with TRIzol followed by the addition of 200 μL of chloroform (Thermo Fisher Scientific). The samples were shaken and placed in ice for 15 min. To aid in the separation of aqueous and organic layers, samples were centrifuged for 15 min at 15,000 g. The aqueous solution was collected and isopropanol was added to each sample (500 μL; Thermo Fisher Scientific). Samples were centrifuged again for 15 min at 15,000 g then washed with 75% ethanol in DEPC-treated water.
(§2) RNA content was determined through Nanodrop and equivalent amount of RNA from each sample were converted to complementary DNA (Applied Biosystems, Foster City, CA). PCR analysis was performed on STEP ONE PLUS® real-time PCR system (Applied Biosystems) with Fast SYBR Green reagent. PCR primers for VEGF-A, GAPDH, and IL-1β were obtained from Bio-Rad Laboratories (Hercules, CA). Primers were purchased from Integrated DNA Technologies (Coralville, IA). Primers for TNFα were: […]

IL-1β = IL-1β mRNA in LPS stimulated BV2 cells (PCR); assay type: cell-based, murine
Description: as §1, §2

VEGF-A [2] = experiment: VEGF-A mRNA in HMECs (PCR); assay type: cell-based, human
Description: as §1, §2

HMECs = experiment: HMEC Matrigel tube formation assay; assay type: cell-based, human; conditions: 24 h pretreatment, imaged after 7 h on Matrigel
Description: HMECs were seeded onto 12-well plates at a density of 1×10^5 cells/mL and allowed to grow to confluency. […] After 24 h of treatment, cells were collected by detaching them with trypsin, collecting the resulting cell suspension, and centrifuging at 300 g for 5 min. Tube formation assay was performed according to protocol provided by Lonza.
In brief, on the day of the assay, 96-well plates were coated with 75 μL of phenol-free […]® and left to polymerize at 37° C. for 20 min. The cell pellets were re-suspended with 300 μL of media and 75 μL of the solution (400,000 cells/mL) were seeded onto each […]®-coated wells.

[3] = system: choroidal neovascularization (CNV); experiment: Laser-induced CNV mouse model, CNV area; assay type: in vivo, C57BL/6J mice
Description: Prior to laser induction of CNV, a cocktail of ketamine/xylazine/acepromazine (100 mg/kg of ketamine, 20 mg/kg of xylazine, and 3 mg/kg of acepromazine) was injected intraperitoneally to anesthetize the animals. Animals were then treated with a drop of topical 2.5% Phyenylephrine Hydrochloride ophthalmic solution followed by 0.5% Tetracaine hydrochloride ophthalmic solution for pupil dilation. A Micron III SLO (Phoenix Research Labs, Pleasanton, CA) was used to image the fundus and focus the attached laser system (Phoenix Research Labs). Four equidistantly placed laser burns in the Bruch's membrane were created with a laser power setting of 240 mW at a duration of 70 ms.
In brief, a 30G insulin syringe was used to create an injection opening in the sclera. A 10 μL Hamilton syringe was then used to administer the treatment directly into the vitreous cavity. After treatment, animals were given topical ocular antibiotic (gentamicin and prednisolone acetate ophthalmic ointment) to prevent infection. Animals were then sacrificed at set time points post treatment (7 and 14 days) for imaging and biochemical analysis.
(§3) At set time points, animals were sacrificed and the enucleated eyes fixed in 4% paraformaldehyde for 1 h. The choroid and retina are then dissected out. Tissues were blocked and permeabilized through 2 h incubation with a solution of 5% normal goat serum, 0.3% Triton X-100, and 1% bovine serum albumin at room temperature under constant agitation. To visualize macrophage, tissues were stained with anti-Iba1 antibody (1:100; FUJIFILM® Wako Chemicals, Osaka, Japan) followed by ALEXA FLUOR® 405-labeled goat anti-rabbit secondary antibody (1:200; Abcam, MA, USA). Blood vessels were stained with FITC-labeled isolectin (GS IB4) (1:100; Life Technologies, Eugene, OR, USA).
(§4) Flat-mounts were created by making four radial incisions on the tissue and mounting the relaxed tissues on coverslips. CNV formation was imaged with confocal 710 microscope (Carl Zeiss, Oberkochen, Germany) for biodistribution, and with an Axiovert phase contrast microscope for area calculation.

VEGF-A [4] = experiment: Choroid VEGF-A protein by ELISA, CNV mouse model; assay type: in vivo
Description: Eyes were dissected immediately after enucleation without fixation. The choroid was collected and stored at −80° C. prior to analysis. For ELISA analysis, choroids were immersed in T-PER protein extraction buffer (Thermo Fisher Scientific) and homogenized with 0.9-2.0 mm stainless steel beads on a Bullet Blender Storm tissue homogenizer (Next Advantage Inc., Averill Park, NY). The supernatant was centrifuged to collect the aqueous solution. The samples were stored in −80° C. and used without further processing for ELISA detection of VEGF-A levels.

VEGF-A [5] = experiment: Choroid VEGF-A mRNA by PCR, CNV mouse model; assay type: in vivo; conditions: day 14
Description: (§5) For PCR, choroids were immersed in TRIzol, homogenized with steel beads, and filtered through Corning COSTAR SPIN-X® centrifuge tube filters (Sigma-Aldrich) to remove tissue solids. The RNA was isolated following the previously described protocol and the RNA concentration was determined through Nanodrop. Equivalent amounts of RNA were converted to complementary DNA (cDNA) and analyzed with Fast SYBR Green reagent through the STEP ONE PCR® system.

TNFα [6] = experiment: Choroid TNFα mRNA by PCR, CNV mouse model; assay type: in vivo
Description: as §5

[7] = system: CNV area (macrophages, endothelial cells); experiment: In vivo distribution and colocalization, CNV mouse model
Description: For biodistribution studies, 1 μg of Cy5-D-miR126-Cy3 or miR-126-Cy3 on a nucleic acid basis (at concentration of 1 μg/μL) were administered to the animals in accordance to the above steps. Tissues were extracted at set time points (1, 3, 5, 7, 14 days post-treatment).
as §3, §4
To assess uptake and distribution, Cy3 labeled miR-126 and dually labeled Cy5-D-miR126-Cy3 were injected into laser CNV mouse models and choroids were collected at 1, 3, 5, 7, 14 days post-injection. Iba1 staining was used to visualize the intracellular environment of macrophage, and isolectin GS-IB4 was used to stain for both blood vessels and macrophages.

[8] = 24 h post-injection (earliest time point)

miR-126: sense 5′-UCGUACCGUGAGUAAUAAUGCG-3′ (SEQ ID NO: 4); antisense 5′-CGCAUUAUUACUCACGGUACGA-[Thiol C6 S—S]-3′ (SEQ ID NO: 5) (3' thiol C6 S-S on antisense; misc_feature 22 3' end linked to Thiol-Modifier C6 S-S)
knockdown of TNFα (TNFα [1]): ~50% | concentration with the higher/high IL-1β knockdown effect (IL-1β): 10 nM | dose response of IL-1β knockdown (IL-1β; 1-100 nM): inverse dose response | doses repressing VEGF-A at the same level as lower doses of D-miR126 (VEGF-A [2]): 10 to 100 nM | knockdown of VEGF-A production (VEGF-A [2]; 24 h, full-serum): ~20% | network formation (HMECs): disruption of network formation | CNV area ([3]; day 7, one intravitreal dose on day of CNV induction): ~8,000 μm^2 | CNV area decrease (significance) ([3]; day 14): insignificant decrease | reduction of CNV area compared to the control ([3]; day 14): ~10% | CNV area ([3]; day 14, one intravitreal dose): ~8,000 μm^2 | VEGF-A protein vs untreated (VEGF-A [4]; day 7): significant decrease | VEGF levels, treated vs untreated animals (VEGF-A [4]; day 14): no differences | VEGF-A mRNA levels (VEGF-A [5]): still reduced | TNFα mRNA (TNFα [6]; 7 days, not statistically significant): elevated | TNFα mRNA (TNFα [6]; 14 days): suppressed TNFα | fraction of Cy3 (miR-126) signal colocalized with Iba1 (macrophages) [7, 8]: around 2% | fraction of signal in combined macrophage/endothelial population (isolectin GS-IB4) [7, 8]: around 3% | time in the CNV target area ([7]; intravitreal, confocal microscopy): up to 7 days | fraction of signal colocalized within macrophages ([7]; peak at 5 days): ~10% | fraction of signal within combined macrophage/endothelial population ([7]; peak at 5 days): ~15%
